pIC50: −log10 of the molar value. Like-named read-outs stand apart in the source and are kept apart here.
Assays:
[1] = system: HCC70 cells; assay: HCC70 cell proliferation (CellTiter-Glo); format: cell-based; conditions: Homo sapiens, read-out: Inhibition of Proliferation of HCC70 Cells (IC50 in M)
Description: HCC70 was the cell line used as a model of triple-negative breast cancer (TNBC). This cell line was obtained from ATCC and was initiated from a primary ductal carcinoma in 1992 (Catalog #CRL-2315; mammary gland primary ductal carcinoma). The HCC-70 tumor cell line was maintained in vitro as a monolayer culture in RPMI-1640 medium supplemented with 10% heat inactivated fetal bovine serum at 37° C. in an atmosphere of 5% CO2 in air.
(§1) Representative compounds were tested at different concentrations (from 4 μM to 126.4 pM; 0.5 log serial dilutions) for their ability to inhibit the proliferation of HCC70 cells. Cells were grown in ATCC-formulated RPMI-1640 Medium (ATCC 30-2001)+10% FBS. The cells were cultured at 37° C. in a humidified chamber in the presence of 5% CO2. Proliferation assays were conducted over a 72 hour time period.
(§2) Cells were cultured and maintained as described above, with cells always fed on the day prior to assay. Assays were run with a 2 hour compound exposure followed by a washout and then a 72 hour proliferation time or exposed to the test compounds for 72 hours with no washout of compound. DMSO was used as a control in all wells not receiving test compound and DMSO wells were used for plate normalization. Proliferation and survival of cells was quantified based on the amount of total ATP following cell lysis as determined by using a standard assay kit used according to manufacturer's instructions. Experiments were performed in the same media used by each cell type for growth and maintenance. Cells (5×10^4) were plated in 96 well plates for compound exposure. CellTiter-Glo® (Promega Corporation, Madison, Wis. USA) was used to assess the anti-proliferative effects of the compounds following manufacturer's directions and utilizing the reagents supplied with the CellTiter-Glo® kit.

[2] = system: RNA polymerase II; assay: Ex vivo RNA polymerase II phosphorylation (pS2/S2) in cynomolgus PBMCs; format: cell-based; conditions: Macaca fascicularis, PBMC; moPBMCs, 2 hours
Description: (§3) The ability of the compounds to inhibit phosphorylation of peripheral blood mononuclear cells (PBMCs) was analyzed ex vivo. Compounds 1 and 4 were dosed at concentrations between 4 μM to 126.4 pM (0.5 log serial dilutions) for 2 hours. The amount of phosphorylated RNA polymerase II and the total amount of RNA polymerase II was analyzed. The values were normalized by taking the ratio of the phosphorylated RNA polymerase II to the total RNA polymerase II (pS2/S2).

[3] = target: T1, CDK9 (Homo sapiens, UniProt P50750); assay: Radiometric kinase assay (33PanQinase); format: biochemical; conditions: read-out: Inhibition of CDK Activity (molar inhibition in a radiometric assay)
T1 construct: either as full-length or enzymatically active fragments; purchased ProQinase GmbH (Reaction Biology); host or cells: Sf9 insect cells or E. coli
Description: (§4) The compounds 1-5 (see Table 1) were assayed for kinase activity at ProQinase (ProQinase GmbH, Reaction Biology; Freiburg, Germany) using their commercially available radiometric kinase assay services. Briefly, the compounds were provided as solids and were dissolved to 1×10^−03 M/100% DMSO stock solutions on the day of assay. All protein kinases were provided by ProQinase and were expressed in Sf9 insect cells or in E. coli as recombinant GST-fusion proteins or His-tagged proteins, either as full-length or enzymatically active fragments. All kinases were produced from human cDNAs and purified by either GSH-affinity chromatography or immobilized metal. The purity of the protein kinases was examined by SDS-PAGE/Coomassie staining, the identity was checked by mass spectroscopy. A radiometric protein kinase assay (^33PanQinase® Activity Assay) was used for measuring the kinase activity of the protein kinase. All kinase assays were performed in 96-well FlashPlates™ from PerkinElmer (Boston, Mass., USA) in a 50 microliter reaction volume. The reaction cocktail was pipetted in four steps in the following order: 1) 25 microliter of assay buffer (standard buffer/[gamma-^33P]-ATP); 2) 10 microliter of ATP solution (in H2O); 3) 5 microliter of test compound (in 10% DMSO); 4) 10 microliter of enzyme/substrate mixture.
(§5) As a parameter for assay quality, the Z′-factor (Zhang et al., J. Biomol. Screen. 2: 67-73, 1999) for the low and high controls of each assay plate (n=8) was used. ProQinase's criterion for repetition of an assay plate is a Z′-factor below 0.4.

[4] = target: T2, CDK12 (Homo sapiens, UniProt Q9NYV4); assay: Radiometric kinase assay (33PanQinase); format: biochemical; conditions: read-out: Inhibition of CDK Activity (molar inhibition in a radiometric assay)
T2 construct: either as full-length or enzymatically active fragments; purchased ProQinase GmbH (Reaction Biology)
T2 sequence (Q9NYV4 whole entry, the tested form may be a part): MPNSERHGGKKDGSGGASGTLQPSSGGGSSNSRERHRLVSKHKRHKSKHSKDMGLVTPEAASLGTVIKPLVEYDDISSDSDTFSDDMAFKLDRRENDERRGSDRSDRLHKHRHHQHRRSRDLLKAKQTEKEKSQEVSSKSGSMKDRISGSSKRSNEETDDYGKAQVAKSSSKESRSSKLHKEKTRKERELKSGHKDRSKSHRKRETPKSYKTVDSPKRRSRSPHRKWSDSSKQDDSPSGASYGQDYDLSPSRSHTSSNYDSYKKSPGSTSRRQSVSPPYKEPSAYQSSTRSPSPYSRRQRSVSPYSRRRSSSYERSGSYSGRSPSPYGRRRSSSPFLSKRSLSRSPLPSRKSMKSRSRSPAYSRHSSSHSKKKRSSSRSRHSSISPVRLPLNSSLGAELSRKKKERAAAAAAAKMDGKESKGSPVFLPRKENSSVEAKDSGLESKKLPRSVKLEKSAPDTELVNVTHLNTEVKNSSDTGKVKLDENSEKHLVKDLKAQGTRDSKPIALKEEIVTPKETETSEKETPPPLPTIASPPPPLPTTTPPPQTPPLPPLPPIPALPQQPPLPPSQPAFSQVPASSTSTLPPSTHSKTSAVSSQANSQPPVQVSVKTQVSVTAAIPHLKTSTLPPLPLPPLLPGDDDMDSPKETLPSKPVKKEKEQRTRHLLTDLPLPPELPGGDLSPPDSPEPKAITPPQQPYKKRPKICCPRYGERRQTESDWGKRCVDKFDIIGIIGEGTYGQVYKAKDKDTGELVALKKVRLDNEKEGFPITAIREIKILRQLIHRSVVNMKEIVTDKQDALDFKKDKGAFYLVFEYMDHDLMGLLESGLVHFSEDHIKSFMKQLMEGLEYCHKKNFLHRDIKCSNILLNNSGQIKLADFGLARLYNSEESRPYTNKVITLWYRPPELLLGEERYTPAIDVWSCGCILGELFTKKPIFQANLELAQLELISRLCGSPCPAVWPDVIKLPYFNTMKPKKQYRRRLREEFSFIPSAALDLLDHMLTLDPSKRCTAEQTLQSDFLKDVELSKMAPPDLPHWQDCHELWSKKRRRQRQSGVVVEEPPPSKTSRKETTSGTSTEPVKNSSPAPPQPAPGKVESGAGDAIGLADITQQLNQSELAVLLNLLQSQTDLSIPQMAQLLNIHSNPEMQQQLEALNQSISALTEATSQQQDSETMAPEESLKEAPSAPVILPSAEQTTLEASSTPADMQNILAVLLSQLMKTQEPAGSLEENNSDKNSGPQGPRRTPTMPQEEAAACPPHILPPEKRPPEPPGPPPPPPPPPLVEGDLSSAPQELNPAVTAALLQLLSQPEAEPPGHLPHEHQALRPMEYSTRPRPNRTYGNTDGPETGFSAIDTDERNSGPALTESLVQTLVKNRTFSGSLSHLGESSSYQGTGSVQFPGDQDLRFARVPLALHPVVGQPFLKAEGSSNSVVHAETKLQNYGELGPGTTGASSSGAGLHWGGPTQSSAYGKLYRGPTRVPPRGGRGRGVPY
T2 sequence (O75909 whole entry partner, the tested form may be a part): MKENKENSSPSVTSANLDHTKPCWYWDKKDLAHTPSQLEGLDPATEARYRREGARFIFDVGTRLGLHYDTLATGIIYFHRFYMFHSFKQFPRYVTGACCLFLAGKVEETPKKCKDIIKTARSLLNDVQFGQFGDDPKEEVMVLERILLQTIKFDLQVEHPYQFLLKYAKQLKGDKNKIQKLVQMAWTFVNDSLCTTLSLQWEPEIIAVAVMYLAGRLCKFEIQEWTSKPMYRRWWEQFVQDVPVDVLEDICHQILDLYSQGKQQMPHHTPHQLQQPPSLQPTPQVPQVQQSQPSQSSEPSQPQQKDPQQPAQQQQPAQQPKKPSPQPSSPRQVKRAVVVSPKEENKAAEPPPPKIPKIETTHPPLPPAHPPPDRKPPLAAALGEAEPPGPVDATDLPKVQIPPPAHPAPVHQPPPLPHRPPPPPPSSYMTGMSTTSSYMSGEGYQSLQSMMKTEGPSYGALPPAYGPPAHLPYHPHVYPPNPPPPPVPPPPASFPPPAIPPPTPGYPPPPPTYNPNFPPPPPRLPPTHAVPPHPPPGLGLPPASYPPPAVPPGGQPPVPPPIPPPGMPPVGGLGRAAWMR
Description: as §4, §5

[5] = target: T3, CDK7 (Homo sapiens, UniProt P50613); assay: Radiometric kinase assay (33PanQinase); format: biochemical; conditions: read-out: Inhibition of CDK Activity (molar inhibition in a radiometric assay)
T3 construct: either as full-length or enzymatically active fragments; purchased ProQinase GmbH (Reaction Biology); host or cells: Sf9 insect cells or E. coli
T3 sequence (P50613 whole entry, the tested form may be a part): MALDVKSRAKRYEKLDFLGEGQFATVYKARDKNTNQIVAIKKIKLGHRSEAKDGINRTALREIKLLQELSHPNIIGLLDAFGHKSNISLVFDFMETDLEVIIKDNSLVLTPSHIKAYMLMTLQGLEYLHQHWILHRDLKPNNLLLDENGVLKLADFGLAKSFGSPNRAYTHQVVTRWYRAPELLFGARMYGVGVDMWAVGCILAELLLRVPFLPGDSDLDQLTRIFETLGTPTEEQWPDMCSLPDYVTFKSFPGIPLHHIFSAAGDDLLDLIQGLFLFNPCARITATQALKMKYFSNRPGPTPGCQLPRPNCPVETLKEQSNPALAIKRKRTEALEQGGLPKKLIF
T3 sequence (P51946 whole entry partner, the tested form may be a part): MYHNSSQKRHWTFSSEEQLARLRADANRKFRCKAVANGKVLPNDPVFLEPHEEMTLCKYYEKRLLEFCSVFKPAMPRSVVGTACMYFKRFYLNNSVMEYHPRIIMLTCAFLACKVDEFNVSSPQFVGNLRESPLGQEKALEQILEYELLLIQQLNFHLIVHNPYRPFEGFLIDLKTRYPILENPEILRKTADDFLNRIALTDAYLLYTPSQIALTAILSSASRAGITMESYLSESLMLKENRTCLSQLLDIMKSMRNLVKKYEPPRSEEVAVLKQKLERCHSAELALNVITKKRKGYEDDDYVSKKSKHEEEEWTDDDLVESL
T3 sequence (P51948 whole entry partner, the tested form may be a part): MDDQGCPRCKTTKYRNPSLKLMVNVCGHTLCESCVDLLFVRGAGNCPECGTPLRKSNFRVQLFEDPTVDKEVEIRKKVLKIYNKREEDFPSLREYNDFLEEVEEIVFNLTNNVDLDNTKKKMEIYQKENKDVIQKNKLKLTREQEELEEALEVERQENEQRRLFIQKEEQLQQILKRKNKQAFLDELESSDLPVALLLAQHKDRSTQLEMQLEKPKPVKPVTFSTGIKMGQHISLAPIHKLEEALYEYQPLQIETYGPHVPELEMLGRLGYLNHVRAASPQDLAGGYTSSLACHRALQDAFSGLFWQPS
Description: as §4, §5

[6] = target: T4, CDK2 (Homo sapiens, UniProt P24941); assay: Radiometric kinase assay (33PanQinase); format: biochemical; conditions: read-out: Inhibition of CDK Activity (molar inhibition in a radiometric assay)
T4 construct: either as full-length or enzymatically active fragments; purchased ProQinase GmbH (Reaction Biology); host or cells: Sf9 insect cells or E. coli
Description: as §4, §5

[7] = target: T5, CDK13 (Homo sapiens, UniProt Q14004); assay: Radiometric kinase assay (33PanQinase); format: biochemical; conditions: read-out: Inhibition of CDK Activity (molar inhibition in a radiometric assay)
T5 construct: either as full-length or enzymatically active fragments; purchased ProQinase GmbH (Reaction Biology)
T5 sequence (Q14004 whole entry, the tested form may be a part): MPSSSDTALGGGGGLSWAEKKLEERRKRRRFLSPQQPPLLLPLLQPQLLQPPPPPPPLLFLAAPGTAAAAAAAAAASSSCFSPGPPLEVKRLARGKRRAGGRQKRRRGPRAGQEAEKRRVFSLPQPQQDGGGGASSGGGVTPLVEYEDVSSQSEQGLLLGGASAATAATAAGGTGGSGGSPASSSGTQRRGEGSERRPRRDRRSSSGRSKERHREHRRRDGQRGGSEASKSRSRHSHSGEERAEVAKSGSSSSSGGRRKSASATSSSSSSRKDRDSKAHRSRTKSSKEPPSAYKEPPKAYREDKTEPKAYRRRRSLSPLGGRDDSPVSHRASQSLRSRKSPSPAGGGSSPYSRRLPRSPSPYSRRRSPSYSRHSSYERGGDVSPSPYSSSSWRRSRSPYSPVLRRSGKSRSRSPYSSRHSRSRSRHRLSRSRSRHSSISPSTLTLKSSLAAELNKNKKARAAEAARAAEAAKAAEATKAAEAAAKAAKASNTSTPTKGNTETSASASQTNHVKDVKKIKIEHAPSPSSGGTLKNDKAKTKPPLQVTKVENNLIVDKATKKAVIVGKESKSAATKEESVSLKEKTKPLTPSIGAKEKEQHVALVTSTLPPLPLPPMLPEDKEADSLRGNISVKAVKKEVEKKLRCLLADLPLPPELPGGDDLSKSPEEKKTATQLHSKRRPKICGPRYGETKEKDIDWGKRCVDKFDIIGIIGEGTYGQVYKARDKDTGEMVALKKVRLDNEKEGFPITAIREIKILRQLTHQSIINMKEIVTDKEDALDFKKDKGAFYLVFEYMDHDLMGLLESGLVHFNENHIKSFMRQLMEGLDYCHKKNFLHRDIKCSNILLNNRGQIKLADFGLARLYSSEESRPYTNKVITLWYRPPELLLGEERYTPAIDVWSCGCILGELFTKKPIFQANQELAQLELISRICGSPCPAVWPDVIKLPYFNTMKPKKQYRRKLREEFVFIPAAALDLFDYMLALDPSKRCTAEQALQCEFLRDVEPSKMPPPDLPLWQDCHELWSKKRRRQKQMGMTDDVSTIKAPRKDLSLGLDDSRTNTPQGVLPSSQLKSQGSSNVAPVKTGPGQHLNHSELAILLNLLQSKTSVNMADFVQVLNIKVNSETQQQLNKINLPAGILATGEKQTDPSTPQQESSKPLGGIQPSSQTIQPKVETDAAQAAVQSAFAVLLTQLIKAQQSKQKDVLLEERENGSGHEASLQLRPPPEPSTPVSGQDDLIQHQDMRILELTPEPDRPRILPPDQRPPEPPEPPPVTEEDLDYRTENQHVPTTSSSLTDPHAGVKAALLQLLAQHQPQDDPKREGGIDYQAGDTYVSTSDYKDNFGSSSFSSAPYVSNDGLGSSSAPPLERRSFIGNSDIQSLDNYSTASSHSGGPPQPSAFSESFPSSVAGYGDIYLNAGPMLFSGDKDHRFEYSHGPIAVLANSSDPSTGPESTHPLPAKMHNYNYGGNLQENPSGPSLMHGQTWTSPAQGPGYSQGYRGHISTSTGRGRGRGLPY
T5 sequence (O75909 whole entry partner, the tested form may be a part): as the sequence (O75909 whole entry partner, the tested form may be a part) above
Description: as §4, §5

[8] = system: RNA polymerase II; assay: Ex vivo RNA polymerase II phosphorylation (pS2/S2) in human PBMCs; format: cell-based; conditions: PBMC, hPBMCs, 2 hours
Description: as §3

[9] = system: OVCAR-3 cells; assay: OVCAR-3 cell proliferation (CellTiter-Glo); format: cell-based; conditions: Homo sapiens, read-out: Inhibition of proliferation of OVCAR3 cells (IC50 in M)
Source text: OVCAR-3 was used as the cell line to model for ovarian cancer in vitro and in vivo. This cell line was obtained from ATCC (Catalog #HTB-161) and is an adenocarcinoma line from the malignant ascites of a patient with progressive adenocarcinoma of the ovary and embodies a preclinical model of high-grade, serous ovarian cancer (HGSOC). OVCAR-3 has been deemed an appropriate model system in which to study drug resistance in ovarian cancer, and the presence of hormone receptors should be useful for the evaluation of hormonal therapy. OVCAR-3 is resistant to clinically relevant concentrations of adriamycin, melphalan and cisplatin.
as §1, with “Compounds 1-5” for “Representative compounds”, “OVCAR-3” for “HCC70”
as §2

[10] = target: T6, PIM2 (Homo sapiens, UniProt Q9P1W9); assay: Radiometric kinase panel; format: biochemical
T6 construct: either as full-length or enzymatically active fragments; purchased ProQinase GmbH (Reaction Biology)
T6 sequence (Q9P1W9 whole entry, the tested form may be a part): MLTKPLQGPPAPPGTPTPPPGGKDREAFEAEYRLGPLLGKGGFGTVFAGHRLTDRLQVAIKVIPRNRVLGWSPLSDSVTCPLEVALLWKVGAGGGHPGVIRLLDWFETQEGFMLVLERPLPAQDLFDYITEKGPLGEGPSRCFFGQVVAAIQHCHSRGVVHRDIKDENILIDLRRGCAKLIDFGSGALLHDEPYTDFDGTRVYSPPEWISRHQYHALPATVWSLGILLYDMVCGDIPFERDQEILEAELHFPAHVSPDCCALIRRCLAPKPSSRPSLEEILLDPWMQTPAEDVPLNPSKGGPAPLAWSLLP
Description: as §4
(§6) Compound 4 was analyzed for selectivity against a panel of other kinases at ProQinase using their commercially available radiometric kinase assay services and the methods described in Example 1.

[11] = target: T7, MATK (Homo sapiens, UniProt P42679); assay: Radiometric kinase panel; format: biochemical
T7 construct: purchased ProQinase GmbH (Reaction Biology)
Description: as §4, §6

[12] = HCC70 (no washout), exposed for 72 hours
[13] = HCC70 (w/washout), 2 hour exposure, washout, 72 hour proliferation
[14] = OVCAR-3 (no washout), exposed for 72 hours
[15] = OVCAR-3 (w/washout), 2 hour exposure, washout, 72 hour proliferation

Compound | pIC50 [1, 12] | pIC50 [1, 13] | pIC50 [2] | pIC50 [3] | pIC50 [4] | pIC50 [5] | pIC50 [6] | pIC50 [7] | pIC50 [8] | pIC50 [9, 14] | pIC50 [9, 15] | inhibition at 1 µM [10] [%] | inhibition at 1 µM [11] [%]
C=CC(=O)Nc1ccc(C(=O)N2CC[C@@H](Nc3ncc(Cl)c(OC)n3)C2)cc1 [Compound 1, (R)-N-(4-(3-((5-chloro-4-methoxypyrimidin-2-yl)amino)pyrrolidine-1-carbonyl)phenyl)acrylamide] | 8.29 | 7.85 | 7.67 | 6.54 | 7.67 | 5.96 | 5.94 | 7.59 | 7.71 | 8.35 | 7.08 |  | 
C=CC(=O)Nc1ccc(C(=O)N2CC[C@@H](Nc3ncc(C#N)cn3)C2)cc1 [Compound 4, (R)-N-(4-(3-((5-cyanopyrimidin-2-yl)amino)pyrrolidine-1-carbonyl)phenyl)acrylamide] | 7.49 | 6.87 | 6.74 | 5.40 | 6.88 | 5.16 | 5.12 | 6.53 | 6.78 | 7.51 | 6.75 | 3 | -3

— patent US20230074545A1, “TREATMENT OF CANCER WITH CDK12/13 INHIBITORS” (Kinnate Biopharma Inc., priority 2019, published 2023)
